Measured values: paper PMC4283194 (Neuroimage, 2014)
Like-named read-outs stand apart in the source and are kept apart here.

Tests used:
CB1 receptor [1] = tested on: CB1 receptor; set-up: method as in Terry et al., 2008, Terry et al., 2010b, Yasuno et al., 2008; conditions: determined using CB1 knockout mouse brain, ref Terry et al., 2008, Terry et al., 2010b, Yasuno et al.; cited from earlier work
CB1 receptor [2] = biological target: T1, CB1 receptor (Homo sapiens, UniProt P21554); experiment: [11C]MePPEP PET, VT by classic spectral analysis parametric maps (SA-maps); type: in vivo
T1 construct: assess the stability of CB1-receptor quantification in humans in vivo; from tissue; host or cells: living human brain (healthy volunteers), in vivo PET
Description: (§1) Continuous and intermittent blood samples were collected to allow the subsequent generation of metabolite-corrected arterial plasma time–activity curves (TACs) ([Hammers et al., 2008]). During the first 15 min blood was withdrawn continuously at a rate of 300 ml/h and radioactivity measured in a BGO detection system ([Jones et al., 1994]). To quantify plasma and whole blood radioactivity, as well as to allow quantification of the parent fraction of the radiotracer, intermittent discrete (10 ml) samples were taken with heparinised syringes before the scan (baseline) and at the following time points after scan start: 3, 5, 10, 15, 20, 30, and 50 min. At 75 min, a larger 17 ml sample was taken to allow quantification despite radioactivity decay. […] Continuous plasma input functions (IF) were derived by cross-calibration and combination of the continuous and discrete data, multiplication with the fitted plasma-over-blood ratio, and correction for parent radiotracer fraction, as described in detail in previous studies ([Hammers et al., 2007a], [Jones et al., 1994]).
The resulting parametric maps of VT values were then sampled in the eight selected ROIs.

CB1 receptor [3] = biological target: T1, CB1 receptor; experiment: [11C]MePPEP PET, VT by classic spectral analysis on ROI data (SA-ROIs); type: in vivo; set-up: unit not given beside the values
Description: as §1
Volumes of distribution (VTs) ([Innis et al., 2007]) for each ROI were obtained from the dynamic images and the metabolite-corrected IFs using spectral analysis (SA) ([Cunningham and Jones, 1993], [Cunningham et al., 1993], [Turkheimer et al., 1994]). The fast frequency boundary was kept at the default value of 0.1 s^− 1. […] Based on previous work with another tracer with relatively slow kinetics ([Hammers et al., 2007a]), we changed this to 0.00063 s^− 1 (log10 = − 3.20) in order to reduce noise.

CB1 receptor [4] = biological target: T1, CB1 receptor; experiment: [11C]MePPEP PET, VT by reversible two-compartment model with variable blood volume (2kbv); type: in vivo
Description: as §1
In this model, three microparameters are derived: K1 is the influx of the ligand from the plasma to the tissue compartment containing free, non-specifically bound, and specifically bound ligand, k2 is the efflux constant from the ROI back to plasma ([Cunningham et al., 1991], [Huang et al., 1980]), and bv is a variable blood volume term. VT is then calculated according to the compartmental model equation ([Watabe et al., 2006]):(1) VT=K1/k2.

CB1 receptor [5] = biological target: T1, CB1 receptor; experiment: [11C]MePPEP PET, VT by reversible three-compartment model with variable blood volume (4kbv); type: in vivo; set-up: unit not given beside the values
Description: as §1
K1 and k2 were calculated as for the 2kbv compartmental model described above; in addition, two additional rate constants were estimated to describe transfer relating to the third compartment: k3, which describes the transfer from the free and non-specifically bound compartment to the specifically bound (third) compartment; and k4, which describes the opposite transfer ([Cunningham et al., 1991], [Huang et al., 1980]). Again, a variable blood volume term was also computed. According to compartmental model equations ([Gunn et al., 2001], [Watabe et al., 2006]):(2) VT=K1/k21+k3/k4.

CB1 receptor [6] = biological target: T1, CB1 receptor; experiment: [11C]MePPEP PET, modified standard uptake values (mSUV); type: in vivo; conditions: ~30–60 min after injection
Description: Modified standard uptake values (mSUVs; [Innis et al., 2007]) for frames 25–31, i.e. from 29 min 50 s to 58 min 50 s after injection, were also derived for the ROIs according to ([Goffin et al., 2011]):(4) activity×weightkg+70kg/2/injecteddose.

[7] = set-up: method as in Terry et al., 2010a; conditions: 370 MBq injected; ref Terry et al., 2010a; cited from earlier work
CB1 receptor [8] = tested on: CB1 receptor; set-up: method as in Terry et al., 2008, Terry et al., 2010b, Yasuno et al., 2008; conditions: monkey brain, ref Terry et al., 2008, Terry et al., 2010b, Yasuno et al.; cited from earlier work
CB1 receptor [9] = biological target: T1, CB1 receptor; experiment: [11C]MePPEP PET, VT by rank shaping regularised spectral analysis (RS-SA); type: in vivo; set-up: VT median: unit not given beside the values
Description: as §1
VT values were generated directly from dynamic data sampled using ROIs with rank shaping (RS; orthogonalized-functional-base) regularisation of SA ([Turkheimer et al., 2003]) using in-house “Clickfit” software. As previously described by [Turkheimer et al. (2003)], we used the metabolite-corrected IF, a logarithmically spaced basis, an exponential range of bases extending to − 3.2, and the regional tissue TAC. TACs were weighted according to ([Gunn et al., 1998]):(3) Wi=Li/Tiforframei=1,2,3…35 [wi — weight for frame i; Li — length of frame i (seconds); and Ti — rate of true coincidences (per second)].
The VT for each ROI was then obtained as the plateau of the VT(R), where R is the expected signal-to noise ratio that is used as the regularisation parameter (R) in rank-shaping (Fig. 2; ([Turkheimer et al., 2003])).

T1 sequence (P21554 whole entry): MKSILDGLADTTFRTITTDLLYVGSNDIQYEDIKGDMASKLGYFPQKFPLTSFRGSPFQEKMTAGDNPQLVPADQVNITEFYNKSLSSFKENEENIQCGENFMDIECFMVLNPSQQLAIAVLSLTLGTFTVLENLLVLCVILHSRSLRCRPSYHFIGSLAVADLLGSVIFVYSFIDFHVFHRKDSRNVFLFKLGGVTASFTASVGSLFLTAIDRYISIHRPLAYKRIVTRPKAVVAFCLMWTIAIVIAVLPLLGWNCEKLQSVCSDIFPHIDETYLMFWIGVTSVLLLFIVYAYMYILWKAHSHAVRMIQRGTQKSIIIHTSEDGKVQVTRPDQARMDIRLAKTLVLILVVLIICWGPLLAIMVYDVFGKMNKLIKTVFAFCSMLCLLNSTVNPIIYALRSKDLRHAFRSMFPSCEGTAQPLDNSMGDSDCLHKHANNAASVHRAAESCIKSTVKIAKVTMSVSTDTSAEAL

**Q.** For `COc1cccc([C@H]2C[C@@H](N[C@H](C)c3ccccc3)C(=O)N2c2ccc(C(F)(F)F)cc2)c1` [[^11C]MePPEP, (3R,5R)-5-(3-methoxy-phenyl)-3-((R)-1-phenyl-ethylamino)-1-(4-trifluoro-methyl-phenyl)-pyrrolidin-2-one], which specific binding (CB1 receptor [1]) is on record?
**A.** The specific binding was 65%.

**Q.** What about the VT median (CB1 receptor [2]; ACG) of the same molecule?
**A.** Its VT median is 14.8.

**Q.** And the VT median (CB1 receptor [2]; Caudate)?
**A.** The VT median was 12.9.

**Q.** What about the VT median (CB1 receptor [2]; Hippocampus) of the same molecule?
**A.** The VT median was 11.5.

**Q.** What about the VT median (CB1 receptor [2]; IFG) of the same molecule?
**A.** Its VT median is 14.8.

**Q.** What about the VT median (CB1 receptor [2]; Pallidum) of the same molecule?
**A.** Its VT median is 15.8.

**Q.** And the VT median (CB1 receptor [2]; Pons)?
**A.** Its VT median is 4.4.

**Q.** What about the VT median (CB1 receptor [2]; Thalamus) of the same molecule?
**A.** Its VT median is 13.2.

**Q.** What about the VT median (CB1 receptor [3]; ACG) of the same molecule?
**A.** Its VT median is 14.4.

**Q.** And the VT median (CB1 receptor [3]; Accumbens)?
**A.** The VT median was 13.9.

**Q.** And the VT median (CB1 receptor [3]; Hippocampus)?
**A.** The VT median was 12.4.

**Q.** And the VT median (CB1 receptor [3]; IFG)?
**A.** Its VT median is 13.9.

**Q.** What about the VT median (CB1 receptor [3]; Pallidum) of the same molecule?
**A.** The VT median was 15.7.

**Q.** And the VT median (CB1 receptor [3]; Pons)?
**A.** Its VT median is 6.0.

**Q.** And the VT median (CB1 receptor [3]; Thalamus)?
**A.** Its VT median is 9.6.

**Q.** And the VT median (CB1 receptor [4]; ACG)?
**A.** Its VT median is 10.3.

**Q.** What about the VT median (CB1 receptor [4]; Hippocampus) of the same molecule?
**A.** Its VT median is 8.0.

**Q.** And the VT median (CB1 receptor [4]; Pallidum)?
**A.** Its VT median is 10.8.

**Q.** And the VT median (CB1 receptor [4]; Pons)?
**A.** Its VT median is 3.0.

**Q.** What about the VT median (CB1 receptor [4]; Thalamus) of the same molecule?
**A.** Its VT median is 5.1.

**Q.** And the VT median (CB1 receptor [5]; ACG)?
**A.** Its VT median is 9.0.

**Q.** And the VT median (CB1 receptor [5]; Accumbens)?
**A.** Its VT median is 13.6.

**Q.** What about the VT median (CB1 receptor [5]; Caudate) of the same molecule?
**A.** The VT median was 6.2.

**Q.** What about the VT median (CB1 receptor [5]; Hippocampus) of the same molecule?
**A.** The VT median was 13.4.

**Q.** What about the VT median (CB1 receptor [5]; Pallidum) of the same molecule?
**A.** The VT median was 10.6.

**Q.** What about the VT median (CB1 receptor [5]; Pons) of the same molecule?
**A.** Its VT median is 5.3.

**Q.** What about the VT median (CB1 receptor [5]; Thalamus) of the same molecule?
**A.** Its VT median is 6.1.

**Q.** And the mSUV median (CB1 receptor [6]; ACG)?
**A.** Its mSUV median is 3.2.

**Q.** What about the mSUV median (CB1 receptor [6]; Accumbens) of the same molecule?
**A.** The mSUV median was 3.0.

**Q.** What about the mSUV median (CB1 receptor [6]; Caudate) of the same molecule?
**A.** Its mSUV median is 2.9.

**Q.** What about the mSUV median (CB1 receptor [6]; IFG) of the same molecule?
**A.** The mSUV median was 3.2.

**Q.** What about the mSUV median (CB1 receptor [6]; Pons) of the same molecule?
**A.** The mSUV median was 0.9.

**Q.** And the “effective dose per scan” value [7]?
**A.** The value was ~ 1.7 mSv.

**Q.** What about the specific binding (CB1 receptor [8]) of the same molecule?
**A.** Its specific binding is greater than 85%.

**Q.** And the VT median (CB1 receptor [9]; ACG)?
**A.** Its VT median is 9.9.

**Q.** What about the “VT from VT(R) plateau, example plot” value (CB1 receptor [9]; Hippocampus, single example) of the same molecule?
**A.** The value was 12.

**Q.** What about the VT median (CB1 receptor [9]; IFG) of the same molecule?
**A.** Its VT median is 9.9.

**Q.** And the VT median (CB1 receptor [9]; Pallidum)?
**A.** Its VT median is 10.3.

**Q.** What about the VT median (CB1 receptor [9]; Pons) of the same molecule?
**A.** Its VT median is 4.3.

**Q.** And the VT median (CB1 receptor [9]; Thalamus)?
**A.** The VT median was 6.5.
